Values of other authors, collected in patent publication US7455864B2, “Melatonin-based composition for improved sleep” (Iomedix Development International Srl, priority 2007, dated 2008).

Key:
[1] = tested on: humans; conditions: transdermal absorption
[2] = tested on: humans; conditions: melatonin supplementation in humans
[3] = tested on: humans; conditions: melatonin supplementation in humans; remark: listed apart in the source

Row | Structure (SMILES) | blood pressure [1] | skin temperature [1] | treatment of jet lag [2] | onset of sleep [3]
1 | C=CC(C)(O)CCC=C(C)C (stereo not shown) [linalool] | reduce | reduce | – | –
2 | COc1ccc2[nH]cc(CCNC(C)=O)c2c1 [Melatonin] | – | – | efficacious for treating jet lag | hastening the onset of sleep
